From patent US11999742B2, “Substituted pyrrolo[1,2-b]pyridazines as anthelmintics” (BOEHRINGER INGELHEIM VETMEDICA GMBH, priority 2021, dated 2024)

Key:
[1] = tested on: Dirofilaria immitis (JYD-34 isolate); test: In vivo efficacy against resistant JYD-34 isolate in immune-deficient NSG mice; conditions: po, 1080 h, read-out: efficacy (live D. immitis larvae recovered), NSG mice, oral 25 mg/kg on Day 1, 15 and 30, count at Day 45
[2] = tested on: Dirofilaria immitis (JYD-34 isolate); test: In vivo efficacy against resistant JYD-34 isolate in beagle dogs (Biological Example 6); conditions: necropsy day 120; for % Efficacy / Geometric Mean Live Heartworm Count: beagle dogs, JYD-34 isolate, 5 mg/kg oral, four times at monthly intervals (Days 0, 27, 55, 84); for efficacy against adult heartworm compared with Interceptor: beagles, oral 5 mg/kg four times at monthly intervals
[3] = tested on: Dirofilaria immitis (JYD-34 isolate); test: In vivo efficacy at two dosages against resistant JYD-34 isolate in beagle dogs (Biological Example 7); conditions: for % Efficacy / Geometric Mean Live Heartworm Count: beagle dogs, JYD-34 isolate; for efficacy against adult heartworm: beagles
[4] = tested on: Dirofilaria immitis (JYD-34 isolate); test: In vivo efficacy against resistant JYD-34 isolate in beagle dogs (Biological Example 8); conditions: for efficacy at preventing infections with adult heartworm: beagles
[5] = 5 mg/kg single dose monthly for four months
[6] = 10 mg/kg (over 2 consecutive days, 5 mg/kg each) monthly for four months
[7] = 5 mg/kg monthly for four months on two consecutive days
[8] = beagle dogs, JYD-34 isolate, 5 mg/kg monthly for four months

Compound: Cc1cc2c(C(C)(C)C)c(C(=O)N[C@H]3CCOc4ccccc43)cnn2c1-c1cc(Cl)cc(Cl)c1 [Compound A464]
- inhibition in vivo at 25 mg/kg [1]: 70 to 90%
- % Efficacy [2]: 38.2%
- Geometric Mean Live Heartworm Count [2]: 16.7
- efficacy against adult heartworm compared with Interceptor [2]: more effective than the commercial product Interceptor™

Compound: Cc1cc2c(C(C)C)c(C(=O)N[C@H]3CCOc4ccccc43)cnn2c1-c1cc(F)cc(Cl)c1Cl [Compound A489]
- inhibition in vivo at 25 mg/kg [1]: 70 to 90%

Compound: Cc1cc2c(N3CCOCC3)c(C(=O)N[C@H]3CCOc4ccccc43)cnn2c1-c1cc(Cl)cc(Cl)c1Cl [Compound A501]
- inhibition in vivo at 25 mg/kg [1]: 70 to 90%

Compound: Cc1cc2c(C(C)C)c(C(=O)N[C@H]3CCOc4ccccc43)cnn2c1-c1cc(Cl)cc(Cl)c1 [Compound A465, 7-(3,5-dichlorophenyl)-N-[(4S)-3,4-dihydro-2H-1-benzopyran-4-yl]-6-methyl-4-(propan-2-yl)pyrrolo[1,2-b]pyridazine-3-carboxamide]
- inhibition in vivo at 25 mg/kg [1]: 50 to 70%

Compound: Cc1cc2c(N(C)C)c(C(=O)N[C@H]3CCOc4ccccc43)cnn2c1-c1cc(F)cc(Cl)c1Cl [Compound A493, 7-(2,3-dichloro-5-fluorophenyl)-N-[(4S)-3,4-dihydro-2H-1-benzopyran-4-yl]-4-(dimethylamino)-6-methylpyrrolo[1,2-b]pyridazine-3-carboxamide]
- % Efficacy [3, 5]: 99.0%
- Geometric Mean Live Heartworm Count [3, 5]: 0.3
- % Efficacy [3, 6]: 100.0%
- Geometric Mean Live Heartworm Count [3, 6]: 0
- efficacy against adult heartworm [3, 7]: 100%
- efficacy against adult heartworm ([3]; one single dosage of 5 mg/kg monthly for four months): 99%
- inhibition in vivo at 25 mg/kg [1]: > 90%

Compound: Cc1cc2c(N3CCOCC3)c(C(=O)N[C@H]3CCOc4ccccc43)cnn2c1-c1cc(F)cc(F)c1F [Compound A491]
- inhibition in vivo at 25 mg/kg [1]: < 50%

Compound: CC(C)(C)c1c(C(=O)N[C@H]2CCOc3ccccc32)cnn2c(-c3cc(Cl)cc(Cl)c3Cl)c(Cl)cc12 [Compound A522]
- inhibition in vivo at 25 mg/kg [1]: > 90%

Compound: Cc1cc2c(C(C)(C)C)c(C(=O)N[C@H]3CCOc4ccccc43)cnn2c1-c1cc(Cl)cc(Cl)c1Cl [Compound A472]
- % Efficacy [4, 8]: 100.0%
- Live Heartworm Count (geo. mean) [4, 8]: 0
- efficacy at preventing infections with adult heartworm ([4]; 5 mg/kg body weight monthly for four months): 100%
- inhibition in vivo at 25 mg/kg [1]: > 90%

Compound: CC(C)(C)c1c(C(=O)N[C@H]2CCOc3ccccc32)cnn2c(-c3c(F)cc(F)cc3F)c(Cl)cc12 [Compound A484]
- inhibition in vivo at 25 mg/kg [1]: 50 to 70%

Compound: milbemycin oxime [reference compound]
- efficacy at preventing infections with adult heartworm ([4]; Interceptor (milbemycin oxime) positive control group): 16.6%

Compound: Cc1cc2c(C(C)(C)C)c(C(=O)N[C@H]3CCOc4ccccc43)cnn2c1-c1cc(F)cc(F)c1F [Compound A471]
- % Efficacy [2]: 39.0%
- Geometric Mean Live Heartworm Count [2]: 16.5
- efficacy against adult heartworm compared with Interceptor [2]: more effective than the commercial product Interceptor™

Compound: CC(C)(C)c1c(C(=O)N[C@H]2CCOc3ccccc32)cnn2c(-c3cc(F)cc(Cl)c3Cl)c(Cl)cc12 [Compound A502, 4-tert-butyl-6-chloro-7-(2,3-dichloro-5-fluorophenyl)-N-[(4S)-3,4-dihydro-2H-1-benzopyran-4-yl]pyrrolo[1,2-b]pyridazine-3-carboxamide]
- inhibition in vivo at 25 mg/kg [1]: 70 to 90%

Compound: Cc1cc2c(N3CC(F)(F)C3)c(C(=O)N[C@H]3CCOc4ccccc43)cnn2c1-c1cc(F)cc(Cl)c1Cl [Compound A504]
- inhibition in vivo at 25 mg/kg [1]: > 90%

Compound: CN(C)c1c(C(=O)N[C@H]2CCOc3ccccc32)cnn2c(-c3cc(Cl)cc(Cl)c3Cl)c(Cl)cc12 [Compound A473]
- inhibition in vivo at 25 mg/kg [1]: > 90%

Compound: CC(C)(C)c1c(C(=O)N[C@H]2CCOc3ccccc32)cnn2c(-c3cc(F)cc(F)c3F)c(Cl)cc12 [Compound A486]
- inhibition in vivo at 25 mg/kg [1]: 70 to 90%

Compound: Cc1cc2c(C(C)(C)C)c(C(=O)N[C@H]3CCOc4ccccc43)cnn2c1-c1cc(F)cc(Cl)c1Cl [Compound A481, 4-tert-butyl-7-(2,3-dichloro-5-fluorophenyl)-N-[(4S)-3,4-dihydro-2H-1-benzopyran-4-yl]-6-methylpyrrolo[1,2-b]pyridazine-3-carboxamide]
- % Efficacy [3, 5]: 64.2%
- Geometric Mean Live Heartworm Count [3, 5]: 11.3
- % Efficacy [3, 6]: 98.0%
- Geometric Mean Live Heartworm Count [3, 6]: 0.6
- efficacy against adult heartworm [3, 7]: about 98%
- inhibition in vivo at 25 mg/kg [1]: 70 to 90%

Compound: O=C(N[C@H]1CCOc2ccccc21)c1cnn2c(-c3cc(F)cc(Cl)c3Cl)c(Cl)cc2c1N1CC(F)(F)C1 [Compound A507]
- inhibition in vivo at 25 mg/kg [1]: > 90%

Compound: Cc1cc2c(C(C)(C)C)c(C(=O)N[C@H]3CCOc4ccccc43)cnn2c1-c1cc(F)cc(F)c1F [Compound A566]
- inhibition in vivo at 25 mg/kg [1]: 70 to 90%

Compound: Cc1cc2c(C(C)(C)C)c(C(=O)NN3CCOc4ccccc43)cnn2c1-c1cc(F)cc(Cl)c1Cl [Compound A495]
- inhibition in vivo at 25 mg/kg [1]: 50 to 70%
